Source: patent US20230123488A1, “STABLE TOPICAL TETRACYCLINE COMPOSITIONS” (VYNE THERAPEUTICS INC., priority 2017, published 2023)
Structures can show the parent of a compound that is named as a salt. Where two headings read alike, the source gives them in different places.

Assays:
[1] = Doxycycline solubility in various solvents; type: physicochemical; details: supernatant
Experimental: Saturated solutions of doxycycline hyclate are prepared by stirring doxycycline in approximately 20 g of solvents for over 48 hours at room temperature. By the end of stirring, all samples have solids in equilibrium with liquids. The samples are filtered and subjected to quantification using UPLC.
Each composition was subjected to centrifugation and the supernatant with dissolved active agent analyzed. The weight /weight percentage of active agent found dissolved in each solvent is shown below: […]

[2] = Compatibility test of active agent with excipients; type: physicochemical; details: excipients: soybean oil, paraffin 57-64, polyvinyl alcohol and hydroxypropylcellulose (klucel)
Experimental: Compatibility tests were performed as described in US8,343,945 and US8,945,516, which are incorporated here by reference with respect to the excipients and their compatibility described herein. […] The mixture was assessed for active agent degradation and optionally for color change.

[3] = Cyclomethicone 5 NF, Diisopropyl adipate, Hydrogenated Castor Oil, MCT Oil, cited from earlier work
[4] = in Isopropyl myristate, room temperature, 72 hours
[5] = in Oleic acid, room temperature, 72 hours

Row | Doxycycline content (solubility) [1, 4] | Doxycycline content (solubility) [1, 5] | Compatibility with additional excipients [2] | Doxycycline content (solubility) ([1]; in 1,3 propane-di-ol, room temperature, 72 hours) | Doxycycline content (solubility) ([1]; in Dimethyl isosorbide, excess doxycycline hyclate stirred at room temperature for 72 hours) | Doxycycline content (solubility) ([1]; in Dimethyl sulfoxide, room temperature, 72 hours) | Doxycycline content (solubility) ([1]; in Ethanol, room temperature, 72 hours) | Doxycycline content (solubility) ([1]; in Glycerin, room temperature, 72 hours) | Doxycycline content (solubility) ([1]; in Hexylene glycol, room temperature, 72 hours) | Doxycycline content (solubility) ([1]; in Isopropanol, room temperature, 72 hours) | Doxycycline content (solubility) ([1]; in Oleyl alcohol, room temperature, 72 hours) | Doxycycline content (solubility) ([1]; in Propylene carbonate, room temperature, 72 hours) | Doxycycline content (solubility) ([1]; in Propylene glycol, room temperature, 72 hours) | Doxycycline content (solubility) ([1]; in Transcutol, room temperature, 72 hours) | Compound | Compatibility with excipients ([3]; excipients: Aerosil, Almond oil, Avocado oil, Beeswax, Behenyl alcohol, Calendula oil, Castor oil, Cetearyl octanoate, Cetostearyl alcohol, Cetyl alcohol, Cocoglycerides, Coconut oil, Gelled mineral oil, Grape seed oil, Hard Fat, Isododecane, isopropyl myristate, Isostearyl alcohol, Jojoba oil, Menthol, Myrist) | Compatibility with excipients ([3]; excipients: Cetearyl octanoate, Ethanol 95%, Hexylene glycol, Isostearic acid, Mineral Oil, Myristyl alcohol, Oleyl alcohol, PEG 100 Stearate, PPG-15 Stearyl Ether, Sorbitan Monostearate (SPAN 60), Stearyl alcohol)
1 | Not detected | Not detected | – | – | – | – | – | – | – | – | – | – | – | – | C[C@H]1c2cccc(O)c2C(=O)C2=C(O)[C@]3(O)C(=O)C(C(N)=O)=C(O)[C@@H](N(C)C)[C@@H]3[C@@H](O)[C@@H]21 [doxycycline, Doxycycline] | – | –
2 | – | – | compatible | – | – | – | – | – | – | – | – | – | – | – | CN(C)c1ccc(O)c2c1C[C@H]1C[C@H]3[C@H](N(C)C)C(O)=C(C(N)=O)C(=O)[C@@]3(O)C(O)=C1C2=O [minocycline HCL, Minocycline HCL] | compatible | –
3 | Not detected | Not detected | – | 21.56 % w/w | 4.12 % w/w | 25.34 % w/w | 3.15 % w/w | 18.28 % w/w | 5.47 % w/w | 1.67 % w/w | 0.29 % w/w | 0.78 % w/w | 34.17 % w/w | 16.30 % w/w | Doxycycline Hyclate [Dox hyclate] | – | compatible
